# Results from patent US20200181284A1, “EPIGENETIC INHIBITORS FOR SENSITIZING HEMATOLOGIC OR OTHER MALIGNANCIES TO GLUCOCORTICOID THERAPY” (UNIVERSITY OF SOUTHERN CALIFORNIA, priority 2017, published 2020).
# Legend:
# [1] = tested on: lung, breast and glioblastoma cancers; conditions: dosages of 5-50 mg/kg; cited from earlier work
# hG9a = target: T1, hG9a (Homo sapiens, UniProt Q96KQ7); assay: Methylation of HA-hG9a in Cos-7 cells (pan met-K immunoprecipitation/immunoblot); format: cell-based, African green monkey; conditions: Cos-7 cells expressing HA-hG9a N, 2 μM, 24 h
# T1 construct: transfected with a plasmid encoding full length HA-hG9a and treated with 2 μM UNC0646; expressed in transfected cells; host or cells: Cos-7
# T1 sequence (Q96KQ7 1-280): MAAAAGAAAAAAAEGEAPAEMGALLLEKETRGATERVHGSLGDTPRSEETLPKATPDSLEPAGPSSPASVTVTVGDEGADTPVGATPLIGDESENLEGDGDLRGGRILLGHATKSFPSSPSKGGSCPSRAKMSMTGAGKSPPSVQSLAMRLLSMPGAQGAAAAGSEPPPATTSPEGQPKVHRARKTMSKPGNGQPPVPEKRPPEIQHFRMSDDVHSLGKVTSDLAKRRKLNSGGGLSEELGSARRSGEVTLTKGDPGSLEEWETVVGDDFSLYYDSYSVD
# Procedure: Cells were transiently transfected (where indicated) using Lipofectamine 2000 (Invitrogen) with 5 μg each of the indicated plasmids according to the manufacturer's protocol. […] Protein extracts were incubated with 1 μg of the indicated primary antibodies overnight at 4° C. with shaking. Protein A/G Plus Agarose (Santa Cruz sc-2003) beads were added and the mixture was incubated 2 hr at 4° C. The immunoprecipitates were separated on SDS-PAGE. Immunoblotting was conducted with primary antibodies against HA epitope (3F10 Roche Applied Science); G9a (G6919), FLAG (F1804), (3-actin (A5441), or GAPDH (G9545) from Sigma; aurora kinase B (ab2254), HP1γ (ab10480), HP1γ (ab56978), phospho-593-HP1γ (ab45270) or pan methyllysine (ab23366) from Abcam; GR (sc-8992) from Santa Cruz; GLP (09-078), or pan phospho-threonine (AB1607) from Millipore; phospho-S211-GR (#4161), H3K9me3 (#13969), H3S10ph (#53348), Histone H3 (#4499) from Cell signaling; or E-cadherin (610182) from BD transduction laboratories. Secondary antibodies from Santa Cruz Biotechnology (anti-rat) and Promega (anti-rabbit and anti-mouse) were used for chemiluminescence detection using Super Signal West Dura (Thermo Scientific) for proteins with low expression levels and ECL prime detection reagent (Amersham) for all other proteins according to the manufacturers' instructions. In immunoprecipitation experiments 3% of the input of each sample was analyzed by immunoblot using the antibodies listed.
# Lysates were immunoprecipitated (IP) with pan met-K antibody and immunoblotted with HA antibody (top), or the usage of the two antibodies was reversed (bottom). Expression of HA-tagged proteins and β-actin (loading control) in the unfractionated extracts is shown at the bottom (Input). For FIG. 17D, Cos-7 cells were transfected with a plasmid encoding full length HA-hG9a and treated with 2 μM UNC0646 or vehicle DMSO for 24 h. Lysates were immunoprecipitated with pan met-K antibody and immunoblotted with HA antibody (top), or the usage of the two antibodies was reversed (bottom).
# Lysates were immunoprecipitated with pan met-K antibody and immunoblotted with HA antibody (top).
# [2] = tested on: G9a and GLP phosphorylation; assay: Phosphorylation of HA-hG9a or HA-hGLP in Cos-7 cells (pan ph-T immunoprecipitation); format: cell-based, monkey; conditions: 2 μM, 24 h
# Procedure: Cos-7 or A549 cells were seeded on 10-cm dishes the day before transfection. Cells were transiently transfected (where indicated) using Lipofectamine 2000 (Invitrogen) with 5 μg each of the indicated plasmids according to the manufacturer's protocol. At 48 h after transfection, cells were treated (or not) with dex for the indicated time period, and cell extracts were prepared in RIPA buffer (50 mM Tris-HCl, pH 8, 150 mM NaCl, 1 mM EDTA, 1% NP-40 and 0.25% deoxycholate) supplemented with protease inhibitor tablets (Roche Molecular Biochemicals) and phosphatase inhibitors (1 mM NaF, 1 mM Na3VO4 and 1 mM β-glycerophosphate). Protein extracts were incubated with 1 μg of the indicated primary antibodies overnight at 4° C. with shaking. Protein A/G Plus Agarose (Santa Cruz sc-2003) beads were added and the mixture was incubated 2 hr at 4° C. The immunoprecipitates were separated on SDS-PAGE. […] In immunoprecipitation experiments 3% of the input of each sample was analyzed by immunoblot using the antibodies listed. […]
# [3] = tested on: phosphorylation of GR or HP1γ; assay: Immunoblot of GR and HP1γ phosphorylation in A549 cells; format: cell-based, human; conditions: 2 μM, 24 h
# Procedure: Cos-7 or A549 cells were seeded on 10-cm dishes the day before transfection. Cells were transiently transfected (where indicated) using Lipofectamine 2000 (Invitrogen) with 5 μg each of the indicated plasmids according to the manufacturer's protocol. At 48 h after transfection, cells were treated (or not) with dex for the indicated time period, and cell extracts were prepared in RIPA buffer (50 mM Tris-HCl, pH 8, 150 mM NaCl, 1 mM EDTA, 1% NP-40 and 0.25% deoxycholate) supplemented with protease inhibitor tablets (Roche Molecular Biochemicals) and phosphatase inhibitors (1 mM NaF, 1 mM Na3VO4 and 1 mM β-glycerophosphate). Protein extracts were incubated with 1 μg of the indicated primary antibodies overnight at 4° C. with shaking. Protein A/G Plus Agarose (Santa Cruz sc-2003) beads were added and the mixture was incubated 2 hr at 4° C. The immunoprecipitates were separated on SDS-PAGE. […] In immunoprecipitation experiments 3% of the input of each sample was analyzed by immunoblot using the antibodies listed.
# 102371 Aurora kinase B inhibition has no effect of phosphorylation of GR or HP1γ as highlighted in the results as shown in FIG. 27E. […] Whole-cell extracts were analyzed with the listed antibodies by immunoblot.
# EHMT2 phosphorylation = assay: Phosphorylation of EHMT2 in NALM-6 cells (pan ph-T immunoprecipitation, EHMT2 immunoblot); format: cell-based, human; conditions: NALM-6, 0.75 μM ZM447439, 24 h
# Procedure: Cells were treated as indicated, and cell extracts were prepared in RIPA buffer ([…] Tris-HCl, pH 8, 150 mM NaCL, 1 mM EDTA, 1% NP-40, and 0.25% deoxycholate) supplemented with protease inhibitor tablets (Roche Molecular Biochemicals) and phosphatase inhibitors (1 mM NaF, 1 mM Na3VO4, and 1 mM β-glycerophosphate). Protein extracts were incubated overnight at 4° C. with shaking with 1 μg of antibodies against EHMT2 (Sigma G6919), EHMT1 (Millipore 09-078), or pan phospho-threonine (Millipore AB1607). Protein A/G plus agarose beads (Santa Cruz sc-2003) were added, and the mixture was incubated 2 h at 4° C. The immunoprecipitates were separated on SDS-PAGE. […]
# FIGS. 48A, 48B, 48C, 48D, 48E, and 48F show the effect of AURKB inhibitors on EHMT2 phosphorylation and dex-induced cell death. […] In each condition, the value measured with dex was normalized to the fluorescence value measured with ethanol. Percentage of survival is shown as the mean±SEM of 4 independent experiments and p-values for individual dex concentrations were calculated using a paired t-test. *p≤0.05, **p≤0.01, * * *p≤0.001. […] EC50s were calculated as the concentration at which half the cells remained alive, compare to vehicle controls. Error bars depict the SEM of 4 independent experiments and p-value was calculated to compare ZM treatment to DMSO using a paired t-test **p≤0.01, * * *p≤0.001. […]
structure (smiles),measurement,setting,value
"Clc1ccc(N/N=C(\c2ccccc2)c2ccccn2)nc1 [JIB-04, 5-chloro-N-[(E)-[phenyl(pyridin-2-yl)methylidene]amino]pyridin-2-amine]",efficacy in mouse xenograft models,[1],effective
COc1cc2c(NC3CCN(C4CCCCC4)CC3)nc(N3CCCN(C(C)C)CC3)nc2cc1OCCCN1CCCCC1 [UNC0646],methylation of the N-terminal G9a fragment,hG9a,decreased
"COc1cc2c(Nc3ccc(NC(=O)c4ccccc4)cc3)ncnc2cc1OCCCN1CCOCC1 [ZM447439, N-[4-[[6-methoxy-7-(3-morpholin-4-ylpropoxy)quinazolin-4-yl]amino]phenyl]benzamide]",G9a and GLP phosphorylation signals,[2],decreased
same,phosphorylation of GR or HP1γ,[3],no effect
same,phosphorylation of EHMT2,EHMT2 phosphorylation,reduced
